Measurements: ChEMBL document CHEMBL3046789, “Effect of s-metolachlor application timing on cabbage tolerance” (Crop Prot, 2007)

Columns and labels:
Format in all cases: organism-based
[1] = system: Brassica oleracea var. capitata; assay: Phytotoxicity against Brassica oleracea var. capitata (cabbage) assessed as decrease in number of marketable cabbage heads at 800 to 2400 g i.a./ha applied 1 to 2 days prior to transplantation relative to control; settings: in vivo, other
[2] = system: Brassica oleracea var. capitata; assay: Phytotoxicity against Brassica oleracea var. capitata (cabbage) assessed as yield at 2400 g a.i./ha applied 1 to 2 days prior to transplantation (reference value: 25.9 tons/ha); settings: in vivo, other
[3] = system: Brassica oleracea var. capitata; assay: Phyototoxicity against Brassica oleracea var. capitata (cabbage) assessed as crop injury at 2400 g a.i./ha applied 1 to 2 days after transplantation measured on day 14 post-transplantation; settings: in vivo
[4] = system: Brassica oleracea var. capitata; assay: Phytotoxicity against Brassica oleracea var. capitata (cabbage) assessed as yield at 2400 g a.i./ha applied 1 to 2 days prior to transplantation followed by incorporation into soil (reference value: 25.9 tons/ha); settings: in vivo, other
[5] = system: Brassica oleracea var. capitata; assay: Phytotoxicity against Brassica oleracea var. capitata (cabbage) assessed as cabbage head weight at 2400 g a.i/ha applied 1 to 2 days after transplantation (reference value: 2465 g); settings: in vivo, other
[6] = system: Brassica oleracea var. capitata; assay: Phyototoxicity against Brassica oleracea var. capitata (cabbage) assessed as crop injury at 800 g a.i./ha applied 1 to 2 days after transplantation measured on day 7 post-transplantation; settings: in vivo, other
[7] = system: Brassica oleracea var. capitata; assay: Phytotoxicity against Brassica oleracea var. capitata (cabbage) assessed as yield at 800 g a.i./ha applied 1 to 2 days prior to transplantation followed by incorporation into soil (reference value: 25.9 tons/ha); settings: in vivo, other
[8] = system: Brassica oleracea var. capitata; assay: Phytotoxicity against Brassica oleracea var. capitata (cabbage) assessed as cabbage head weight at 2400 g a.i/ha applied 1 to 2 days prior to transplantation followed by incorporation into soil (reference value: 2465 g); settings: in vivo, other
[9] = system: Brassica oleracea var. capitata; assay: Phytotoxicity against Brassica oleracea var. capitata (cabbage) assessed as cabbage head weight at 800 g a.i/ha applied 1 to 2 days prior to transplantation followed by incorporation into soil (reference value: 2465 g); settings: in vivo, other
[10] = system: Brassica oleracea var. capitata; assay: Phyototoxicity against Brassica oleracea var. capitata (cabbage) assessed as crop injury at 800 g a.i./ha applied 1 to 2 days prior to transplantation measured on day 14 post-transplantation; settings: in vivo, other
[11] = system: Brassica oleracea var. capitata; assay: Phyototoxicity against Brassica oleracea var. capitata (cabbage) assessed as crop injury at 2400 g a.i./ha applied 1 to 2 days prior to transplantation followed by incorporation into soil measured on day 28 post-transplantation; settings: in vivo, other
[12] = system: Brassica oleracea var. capitata; assay: Phyototoxicity against Brassica oleracea var. capitata (cabbage) assessed as crop injury at 800 g a.i./ha applied 1 to 2 days prior to transplantation followed by incorporation into soil measured on day 7 post-transplantation; settings: in vivo, other
[13] = system: Brassica oleracea var. capitata; assay: Phytotoxicity against Brassica oleracea var. capitata (cabbage) assessed as cabbage head weight at 800 g a.i/ha applied 1 to 2 days after transplantation (reference value: 2465 g); settings: in vivo, other
[14] = system: Brassica oleracea var. capitata; assay: Phyototoxicity against Brassica oleracea var. capitata (cabbage) assessed as crop injury at 800 g a.i./ha applied 1 to 2 days after transplantation measured on day 28 post-transplantation; settings: in vivo, other
[15] = system: Brassica oleracea var. capitata; assay: Phyototoxicity against Brassica oleracea var. capitata (cabbage) assessed as crop injury at 800 g a.i./ha applied 1 to 2 days prior to transplantation measured on day 7 post-transplantation; settings: in vivo, other
[16] = system: Brassica oleracea var. capitata; assay: Phytotoxicity against Brassica oleracea var. capitata (cabbage) assessed as yield at 1600 g a.i./ha applied 1 to 2 days after transplantation (reference value: 25.9 tons/ha); settings: in vivo, other
[17] = system: Brassica oleracea var. capitata; assay: Phytotoxicity against Brassica oleracea var. capitata (cabbage) assessed as yield at 800 g a.i./ha applied 1 to 2 days after transplantation (reference value: 25.9 tons/ha); settings: in vivo, other
[18] = system: Brassica oleracea var. capitata; assay: Phytotoxicity against Brassica oleracea var. capitata (cabbage) assessed as cabbage head weight at 1600 g a.i/ha applied 1 to 2 days prior to transplantation (reference value: 2465 g); settings: in vivo, other
[19] = system: Brassica oleracea var. capitata; assay: Phyototoxicity against Brassica oleracea var. capitata (cabbage) assessed as crop injury at 1600 g a.i./ha applied 1 to 2 days after transplantation measured on day 28 post-transplantation; settings: in vivo, other
[20] = system: Brassica oleracea var. capitata; assay: Phytotoxicity against Brassica oleracea var. capitata (cabbage) assessed as decrease in number of marketable cabbage heads at 800 to 2400 g i.a./ha applied 1 to 2 days prior to transplantation followed by incorporation into soil relative to control; settings: in vivo, other
[21] = system: Brassica oleracea var. capitata; assay: Phyototoxicity against Brassica oleracea var. capitata (cabbage) assessed as crop injury at 2400 g a.i./ha applied 1 to 2 days prior to transplantation measured on day 14 post-transplantation; settings: in vivo, other
[22] = system: Brassica oleracea var. capitata; assay: Phyototoxicity against Brassica oleracea var. capitata (cabbage) assessed as crop injury at 1600 g a.i./ha applied 1 to 2 days prior to transplantation measured on day 7 post-transplantation; settings: in vivo, other
[23] = system: Brassica oleracea var. capitata; assay: Phytotoxicity against Brassica oleracea var. capitata (cabbage) assessed as decrease in number of marketable cabbage heads at 800 to 2400 g i.a./ha applied 1 to 2 days after transplantation relative to control; settings: in vivo
[24] = system: Brassica oleracea var. capitata; assay: Phytotoxicity against Brassica oleracea var. capitata (cabbage) assessed as yield at 1600 g a.i./ha applied 1 to 2 days prior to transplantation followed by incorporation into soil (reference value: 25.9 tons/ha); settings: in vivo, other
[25] = system: Brassica oleracea var. capitata; assay: Phyototoxicity against Brassica oleracea var. capitata (cabbage) assessed as crop injury at 1600 g a.i./ha applied 1 to 2 days after transplantation measured on day 7 post-transplantation; settings: in vivo, other
[26] = system: Brassica oleracea var. capitata; assay: Phyototoxicity against Brassica oleracea var. capitata (cabbage) assessed as crop injury at 800 g a.i./ha applied 1 to 2 days prior to transplantation followed by incorporation into soil measured on day 14 post-transplantation; settings: in vivo, other
[27] = system: Brassica oleracea var. capitata; assay: Phyototoxicity against Brassica oleracea var. capitata (cabbage) assessed as crop injury at 1600 g a.i./ha applied 1 to 2 days prior to transplantation followed by incorporation into soil measured on day 28 post-transplantation; settings: in vivo, other
[28] = system: Brassica oleracea var. capitata; assay: Phyototoxicity against Brassica oleracea var. capitata (cabbage) assessed as crop injury at 2400 g a.i./ha applied 1 to 2 days prior to transplantation followed by incorporation into soil measured on day 7 post-transplantation; settings: in vivo, other
[29] = system: Brassica oleracea var. capitata; assay: Phyototoxicity against Brassica oleracea var. capitata (cabbage) assessed as crop injury at 800 g a.i./ha applied 1 to 2 days prior to transplantation followed by incorporation into soil measured on day 28 post-transplantation; settings: in vivo, other
[30] = system: Brassica oleracea var. capitata; assay: Phytotoxicity against Brassica oleracea var. capitata (cabbage) assessed as yield at 2400 g a.i./ha applied 1 to 2 days after transplantation (reference value: 25.9 tons/ha); settings: in vivo, other
[31] = system: Brassica oleracea var. capitata; assay: Phyototoxicity against Brassica oleracea var. capitata (cabbage) assessed as crop injury at 1600 g a.i./ha applied 1 to 2 days after transplantation measured on day 14 post-transplantation; settings: in vivo
[32] = system: Brassica oleracea var. capitata; assay: Phytotoxicity against Brassica oleracea var. capitata (cabbage) assessed as yield at 1600 g a.i./ha applied 1 to 2 days prior to transplantation (reference value: 25.9 tons/ha); settings: in vivo, other
[33] = system: Brassica oleracea var. capitata; assay: Phyototoxicity against Brassica oleracea var. capitata (cabbage) assessed as crop injury at 2400 g a.i./ha applied 1 to 2 days prior to transplantation measured on day 7 post-transplantation; settings: in vivo, other
[34] = system: Brassica oleracea var. capitata; assay: Phyototoxicity against Brassica oleracea var. capitata (cabbage) assessed as crop injury at 800 g a.i./ha applied 1 to 2 days after transplantation measured on day 14 post-transplantation; settings: in vivo
[35] = system: Brassica oleracea var. capitata; assay: Phytotoxicity against Brassica oleracea var. capitata (cabbage) assessed as cabbage head weight at 800 g a.i/ha applied 1 to 2 days prior to transplantation (reference value: 2465 g); settings: in vivo
[36] = system: Brassica oleracea var. capitata; assay: Phytotoxicity against Brassica oleracea var. capitata (cabbage) assessed as cabbage head weight at 1600 g a.i/ha applied 1 to 2 days after transplantation (reference value: 2465 g); settings: in vivo, other
[37] = system: Brassica oleracea var. capitata; assay: Phyototoxicity against Brassica oleracea var. capitata (cabbage) assessed as crop injury at 2400 g a.i./ha applied 1 to 2 days prior to transplantation followed by incorporation into soil measured on day 14 post-transplantation; settings: in vivo, other
[38] = system: Brassica oleracea var. capitata; assay: Phytotoxicity against Brassica oleracea var. capitata (cabbage) assessed as yield at 800 g a.i./ha applied 1 to 2 days prior to transplantation (reference value: 25.9 tons/ha); settings: in vivo, other
[39] = system: Brassica oleracea var. capitata; assay: Phyototoxicity against Brassica oleracea var. capitata (cabbage) assessed as crop injury at 2400 g a.i./ha applied 1 to 2 days after transplantation measured on day 28 post-transplantation; settings: in vivo, other
[40] = system: Brassica oleracea var. capitata; assay: Phytotoxicity against Brassica oleracea var. capitata (cabbage) assessed as cabbage head weight at 2400 g a.i/ha applied 1 to 2 days prior to transplantation (reference value: 2465 g); settings: in vivo, other
[41] = system: Brassica oleracea var. capitata; assay: Phyototoxicity against Brassica oleracea var. capitata (cabbage) assessed as crop injury at 1600 g a.i./ha applied 1 to 2 days prior to transplantation followed by incorporation into soil measured on day 7 post-transplantation; settings: in vivo, other
[42] = system: Brassica oleracea var. capitata; assay: Phyototoxicity against Brassica oleracea var. capitata (cabbage) assessed as crop injury at 800 g a.i./ha applied 1 to 2 days prior to transplantation measured on day 28 post-transplantation; settings: in vivo, other
[43] = system: Brassica oleracea var. capitata; assay: Phyototoxicity against Brassica oleracea var. capitata (cabbage) assessed as crop injury at 1600 g a.i./ha applied 1 to 2 days prior to transplantation measured on day 14 post-transplantation; settings: in vivo, other
[44] = system: Brassica oleracea var. capitata; assay: Phyototoxicity against Brassica oleracea var. capitata (cabbage) assessed as crop injury at 1600 g a.i./ha applied 1 to 2 days prior to transplantation measured on day 28 post-transplantation; settings: in vivo, other
[45] = system: Brassica oleracea var. capitata; assay: Phytotoxicity against Brassica oleracea var. capitata (cabbage) assessed as cabbage head weight at 1600 g a.i/ha applied 1 to 2 days prior to transplantation followed by incorporation into soil (reference value: 2465 g); settings: in vivo, other
[46] = system: Brassica oleracea var. capitata; assay: Phyototoxicity against Brassica oleracea var. capitata (cabbage) assessed as crop injury at 1600 g a.i./ha applied 1 to 2 days prior to transplantation followed by incorporation into soil measured on day 14 post-transplantation; settings: in vivo, other
[47] = system: Brassica oleracea var. capitata; assay: Phyototoxicity against Brassica oleracea var. capitata (cabbage) assessed as crop injury at 2400 g a.i./ha applied 1 to 2 days after transplantation measured on day 7 post-transplantation; settings: in vivo, other
[48] = system: Brassica oleracea var. capitata; assay: Phyototoxicity against Brassica oleracea var. capitata (cabbage) assessed as crop injury at 2400 g a.i./ha applied 1 to 2 days prior to transplantation measured on day 28 post-transplantation; settings: in vivo, other

CCc1cccc(C)c1N(C(=O)CCl)[C@@H](C)COC [S-METOLACHLOR]
Activity [1]: Non-toxic
Crop_yield [2]: 25.4 tons/ha
Activity [3]: 0%
Crop_yield [4]: 25.7 tons/ha
Activity [5]: 2676 g
Activity [6]: 3%
Crop_yield [7]: 26.4 tons/ha
Activity [8]: 2421 g
Activity [9]: 2413 g
Activity [10]: 0%
Activity [11]: 0%
Activity [12]: 2%
Activity [13]: 2310 g
Activity [14]: 0%
Activity [15]: 2%
Crop_yield [16]: 26.4 tons/ha
Crop_yield [17]: 24.5 tons/ha
Activity [18]: 2540 g
Activity [19]: 0%
Activity [20]: Non-toxic
Activity [21]: 0%
Activity [22]: 2%
Activity [23]: Non-toxic
Crop_yield [24]: 23.4 tons/ha
Activity [25]: 2%
Activity [26]: 0%
Activity [27]: 0%
Activity [28]: 1%
Activity [29]: 0%
Crop_yield [30]: 27.7 tons/ha
Activity [31]: 0%
Crop_yield [32]: 27.1 tons/ha
Activity [33]: 3%
Activity [34]: 1%
Activity [35]: 2386 g
Activity [36]: 2556 g
Activity [37]: 0%
Crop_yield [38]: 26.7 tons/ha
Activity [39]: 0%
Activity [40]: 2460 g
Activity [41]: 3%
Activity [42]: 0%
Activity [43]: 1%
Activity [44]: 0%
Activity [45]: 2255 g
Activity [46]: 0%
Activity [47]: 0%
Activity [48]: 0%
